The subject of one assay is perifused mouse islets. Description: Insulin secretion from perifused islets. Type of assay: cell-based. The conditions noted are these: 4 hr preincubation; 100 μM ALLM, 200 μM E-64-d. On the procedure:
Insulin secretion from perifused islets. Insulin secretion from perifused islets was measured using a modification of a previously described protocol (Pontoglio et al., 1998; Sreenan et al., 1998).

In another assay the test system is isolated β-cells. Description: Membrane capacitance recordings (exocytosis) in isolated β-cells. Type of assay: cell-based, mouse. On the procedure:
Isolation of pancreatic β-cells. Single β-cells were obtained from isolated islets dispersed by gentle trituration (120 strokes through a 200 μl pipette tip) in Ca^2+ and Mg^2+-free PBS containing […]. Cells were plated on glass coverslips and maintained in culture in RPMI containing 11.6 mM glucose for 48-96 hr.
Capacitance recordings. Capacitance measurements were made with the phase-tracking technique in which a 60 mV peak-to-peak sine wave was superimposed on a holding potential of −80 mV as previously described. Conductance and capacitance values were continuously generated and recorded. The whole-cell capacitance was canceled with the slow capacitance compensation; unbalancing the slow capacitance compensation by 100 fF provided the capacitance calibration signal used to calculate changes in membrane capacitance. The sinusoidal voltage template was interrupted to deliver depolarizations to a cell. Beta cells were stimulated with a train of ten step depolarizations to +20 mV (HP=−80 mV). Each step depolarization lasted 150 ms and was separated by 400 ms interpulse duration. Capacitance measurements were carried out in the perforated whole-cell configuration. The data were collected at a 500 μsec sampling rate and filtered at 5 kHz. Recordings with series resistance >20 MΩ were discarded. Series resistance compensation was applied in all recordings.
The recording solution for the capacitance measurements contained (in mM): 130 NaCl, 2 glucose, 10 Na-HEPES, 1 MgCl2, 2 KCl, and 5 CaCl2, pH 7.3 with NaOH. The pipette solution contained (in mM): 135 Cs-glutamate, 10 Na-HEPES, 9.5 NaCl, 0.5 TEACl, and 0.5 CaCl2, pH7.3 with CsOH. The pipettes were backfilled with an identical solution to which amphotericin B (final concentration of 0.5 mg/ml) was added and then sonicated. The amphotericin B stock solution (125 mg/ml) was kept frozen at −20° C. and used for one week. ALLM pre-treatment was as described above (see patch-clamp electrophysiology section). All electrophysiological recordings were carried out at room temperature (22-24° C.)

For the next assay, the system named is mouse islets. Description: Islet NAD(P)H autofluorescence response. Format: cell-based. On the procedure: Measurement of islet [Ca^2+]i, and NAD(P)H. Islet [Ca^2+]i and NAD(P)H were measured as previously described (Pontoglio et al., 1998; Dukes et al., 1998).
The next assay relates to rat adipocytes. Description: 2-Deoxyglucose uptake into adipocytes. The conditions noted are these: 100 μM ALLM or 200 μM E-64-d. Format: cell-based. On the procedure:
Adipocytes were isolated from epididymal fat pads of 3 month old male Wistar rats as described previously (Robdell, 1964) with the following modification: fat pads were minced to 1-2 mm pieces and incubated for ˜25 min at 37° C. with collagenase I (1 mg/ml, Worthington Biochemicals, Lakewood, N.J.) in KRB containing 10 mM Hepes (pH 7.4), 0.2% BSA and 2 mM sodium pyruvate. The cell suspension was filtered through a nylon mesh (134 μM, Spectrum Lab., Laguna Hills, Calif.) washed three times by floating and allowed to rest for 45 min in the KRB. […] Then another 50 μl of KRB containing 5 mM 2-DOG (final concentration 1 mM), 0.5 μCi of 2-deoxy-[2,6-^3H]glucose was added and cells were incubated for a further 5 min at 25° C. The transport was stopped by adding cytochalasin B (final concentration 50 μM) and cells were spun through 250 μl of dinonyl phthalate oil (Fisher Scientific, Pittsburgh, Pa.). Cells were then transferred to scintillation vials for counting.

Another assay relates to rat soleus muscle strips. The assay is described as follows: 2-Deoxyglucose uptake into soleus muscle strips. Type of assay: cell-based. The conditions noted are these: 100 μM ALLM or 200 μM E-64-d. Here is the method: 2-Deoxyglucose uptake into skeletal muscle and adipose tissue. 2-deoxyglucose (2-DOG) uptake by isolated strips of soleus muscle from normal Wistar rats was measured using a modification of a previously described protocol (Burant et al., 1984). […] Muscles were then extracted and 2-DOG uptake calculated as previously described (Burant et al., 1984).

For another assay, the system named is islets. The assay is described as follows: Insulin content of islets after 48 h inhibitor exposure. Format: cell-based, mouse. The conditions noted are these: 48 hours treatment.

Peptide text beside a SMILES is read from it.

The text below walks through data of patent publication US20060234276A1, “Methods of treatment of type 2 diabetes” (priority 1998, published 2006).

With `CSCC[C@@H](C=O)NC(=O)[C@H](CC(C)C)NC(=O)[C@H](CC(C)C)NC(C)=O` [ALLM, N-Ac-Leu-Leu-methioninal] (Ac-Leu-Leu-Met-aldehyde), the “enhancement of insulin secretory response to 20 mM glucose in dynamic islet perifusion” value in the assay on perifused mouse islets is reported as “also observed”. Also, the “rates of exocytosis in β-cells” value with isolated β-cells (4 days culture with inhibitor) is given as “significantly lower rates of exocytosis”. For the same compound, the “change in membrane capacitance elicited by train of depolarizations” value with isolated β-cells (ALLM 100 μM pre-treatment, vs control cells) is given as “much larger average changes in membrane capacitance”. Further, the “NAD(P)H response to increase in glucose from 2 to 14 mM” value in the assay with mouse islets (100 μM ALLM or E-64-d, 4 hr preincubation) is given as 2.7±0.4 fold increase. Also, in the assay on mouse islets (48 h treated islets), the “NAD(P)H responses to KIC vs control” value is given as “significantly reduced” and the “NAD(P)H responses to glucose vs control” value is “comparable”. In addition, in the assay on rat adipocytes (insulin 12 nmol/L), the “2-DOG uptake into adipocytes with insulin” value is given as 751±71 pmol/2×10^5 cells/5 min. Moreover, the “2-DOG uptake into adipocytes without insulin” value with rat adipocytes (no insulin) is listed as 598±102 pmol/2×10^5 cells/5 min. Further, in the assay on rat soleus muscle strips (insulin 12 nM), the “2-deoxyglucose uptake into soleus muscle strips with insulin” value was 0.34±0.05 (mol/ml H20/30 mins. The “2-deoxyglucose uptake into soleus muscle strips without insulin” value with rat soleus muscle strips (no insulin) is on record as 0.28±0.04 (mol/ml H20/30 mins. In addition, the “insulin content in islets vs control islets” value in the assay with islets is “comparable”.
